Counter-ions that a name gives are not always drawn.
Columns and labels:
[1] = molecular target: Type II neuronal voltage-activated sodium channels (Rattus norvegicus, UniProt P04775); assay: cell-based; conditions: veratridine (100 μM)-induced, tetrodotoxin-sensitive uptake; CHO cells expressing rat brain Type II Na channels; read-out: IC50, block of ^14C guanidinium uptake
[2] = tested on: depolarization-induced 3H-glutamate release from brain nerve terminals; assay: Inhibition of 3H-glutamate release, high [K+] depolarization, rapid superfusion of synaptosomes; type: biochemical; conditions: rat brain synaptosomes; for % Inhibition of ^3H-Glu Rel @ 3 μM: 3 μM compound; for % Inhibition of ^3H-Glu Rel @ 0.3 μM: 0.3 μM compound; for % Inhibition of ^3H-Glu Rel @ 1 μM: 1 μM compound; for % Inhibition of ^3H-Glu Rel @ 0.1 μM: 0.1 μM compound
[3] = tested on: audiogenic seizures in DBA/2 mice; assay: In vivo anticonvulsant activity in the DBA/2 mouse model (audiogenic seizures); conditions: 30 minutes prior to auditory stimulus
Experimental: Compounds were tested for their effectiveness in preventing seizures in DBA/2 mice which have a unique sensitivity to auditory stimulation. Exposure to loud high-frequency sounds can trigger seizure activity in these animals. This sensitivity develops from postnatal day 12 and peaks around day 21 and slowly diminishes as the animals mature. The unusual response to auditory stimulation in this strain of mouse is believed to be due to a combination of early myelination (causing an unusually low excitatory threshold) and delayed development of inhibitory mechanisms. Glutamate, the predominant excitatory neurotransmitter, has been implicated in this response. Blockade of glutamate receptors of the NMDA and AMPA subtypes, prevents audiogenic seizures in these mice. Compounds that block the release of glutamate should similarly act to prevent seizure activity, and may be therapeutic in other neurologic disorders such as stroke, which also involves glutamate-mediated damage.
Mice were injected intraperitoneally with the compound specified in Table V below or with vehicle control, 30 minutes prior to being placed in a bell jar and turning on the auditory stimulus (12 KHz sine wave at 110-120 db). Administered doses are specified in Table V as milligram of compound per kilogram bodyweight of mouse. The auditory stimulus was left on for 60 seconds and mice reactions were timed and recorded.
Percentage inhibition was determined with reference to vehicle controls.

Type II neuronal voltage-activated sodium channels, sequence (P04775 whole entry, the tested form may be a part): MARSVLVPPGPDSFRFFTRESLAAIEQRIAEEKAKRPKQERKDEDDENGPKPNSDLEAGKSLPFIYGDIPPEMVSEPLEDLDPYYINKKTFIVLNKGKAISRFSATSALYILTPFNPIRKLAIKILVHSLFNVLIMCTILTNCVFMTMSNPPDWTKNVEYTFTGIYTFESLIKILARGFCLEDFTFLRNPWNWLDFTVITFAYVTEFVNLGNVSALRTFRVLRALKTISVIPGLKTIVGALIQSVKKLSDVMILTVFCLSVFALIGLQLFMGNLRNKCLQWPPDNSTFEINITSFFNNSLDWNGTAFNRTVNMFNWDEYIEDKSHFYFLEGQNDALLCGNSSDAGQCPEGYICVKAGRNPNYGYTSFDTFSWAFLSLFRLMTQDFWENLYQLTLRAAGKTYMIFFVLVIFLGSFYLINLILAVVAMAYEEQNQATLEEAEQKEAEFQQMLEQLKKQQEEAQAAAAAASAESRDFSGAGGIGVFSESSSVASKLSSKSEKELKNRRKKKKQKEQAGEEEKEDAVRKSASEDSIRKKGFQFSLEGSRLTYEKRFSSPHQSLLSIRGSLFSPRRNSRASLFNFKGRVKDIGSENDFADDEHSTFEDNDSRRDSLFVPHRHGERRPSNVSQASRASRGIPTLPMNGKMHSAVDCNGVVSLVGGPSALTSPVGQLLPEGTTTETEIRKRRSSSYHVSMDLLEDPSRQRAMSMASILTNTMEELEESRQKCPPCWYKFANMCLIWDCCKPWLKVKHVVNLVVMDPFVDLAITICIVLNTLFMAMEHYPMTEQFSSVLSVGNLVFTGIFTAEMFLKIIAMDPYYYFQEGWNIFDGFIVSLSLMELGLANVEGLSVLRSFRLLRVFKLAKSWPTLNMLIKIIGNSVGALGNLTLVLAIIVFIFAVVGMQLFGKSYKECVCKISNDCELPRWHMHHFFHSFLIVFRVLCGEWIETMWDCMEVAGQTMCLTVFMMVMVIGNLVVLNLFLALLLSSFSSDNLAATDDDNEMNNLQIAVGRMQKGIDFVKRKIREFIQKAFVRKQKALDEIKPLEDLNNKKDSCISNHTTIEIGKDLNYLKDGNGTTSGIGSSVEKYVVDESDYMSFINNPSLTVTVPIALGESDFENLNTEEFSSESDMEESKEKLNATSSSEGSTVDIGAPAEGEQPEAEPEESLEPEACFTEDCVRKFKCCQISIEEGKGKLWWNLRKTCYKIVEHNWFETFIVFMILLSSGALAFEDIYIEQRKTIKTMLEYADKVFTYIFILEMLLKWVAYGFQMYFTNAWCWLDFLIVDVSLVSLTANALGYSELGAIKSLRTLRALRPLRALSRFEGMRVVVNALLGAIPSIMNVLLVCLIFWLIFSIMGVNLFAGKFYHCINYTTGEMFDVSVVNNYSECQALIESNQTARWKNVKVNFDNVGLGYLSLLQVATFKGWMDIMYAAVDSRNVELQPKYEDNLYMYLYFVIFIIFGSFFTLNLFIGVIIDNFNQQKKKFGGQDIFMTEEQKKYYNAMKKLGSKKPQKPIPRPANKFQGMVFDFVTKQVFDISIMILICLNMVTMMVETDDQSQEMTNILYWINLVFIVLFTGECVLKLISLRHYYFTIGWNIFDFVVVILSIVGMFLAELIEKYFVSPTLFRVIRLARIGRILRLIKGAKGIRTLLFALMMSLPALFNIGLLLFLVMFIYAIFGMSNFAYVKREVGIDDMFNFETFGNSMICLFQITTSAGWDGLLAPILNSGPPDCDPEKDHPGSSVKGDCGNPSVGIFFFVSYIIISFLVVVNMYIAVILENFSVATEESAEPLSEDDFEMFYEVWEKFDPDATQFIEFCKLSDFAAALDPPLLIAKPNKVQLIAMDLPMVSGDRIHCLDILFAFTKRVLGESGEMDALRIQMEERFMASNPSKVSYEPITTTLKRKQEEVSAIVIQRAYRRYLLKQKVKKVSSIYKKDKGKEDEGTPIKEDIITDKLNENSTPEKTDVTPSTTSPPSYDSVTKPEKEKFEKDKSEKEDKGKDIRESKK

Compound | % Inhibition of ^3H-Glu Rel @ 0.3 μM [2] [%] | Audiogenic Response % Inhib. ([3]; 40 mg/kg intraperitoneally) [%] | also measured
CC(C)c1ccc(NC(=N)Nc2ccc3ccccc3c2)cc1 [Example 11, N-(2-Naphthyl)-N′-(4-isopropylphenyl)guanidine.HCl] | – | – | IC50 [1]: 900 nM
N=C(Nc1ccc2c(c1)Cc1ccccc1-2)Nc1ccc2c(c1)Cc1ccccc1-2 [Example 12, N,N′-Bis(2-fluorenyl)guanidine.HBr] | – | – | IC50 [1]: 1500 nM
CC(C)(C)c1ccc(NC(=N)Nc2ccc(Cl)c(Cl)c2Cl)cc1.Cl [Example 14, N-(4-tert-Butylphenyl)-N′-(2,3,4-trichlorophenyl)guanidine.HCl] | – | – | % Inhibition of ^3H-Glu Rel @ 3 μM [2]: 63%; IC50 [1]: 1800 nM
N=C(Nc1ccc2ccccc2c1)NC1C2CC3CC(C2)CC1C3 (stereo not drawn) [Example 16, N-(2-Naphthyl)-N′-(2-adamantyl)guanidine.HCl] | – | – | IC50 [1]: 500 nM
CC(C)c1ccc(CN(C(=N)N)c2ccc(C3CCCCC3)cc2)cc1 [Example 20, N-(4-Cyclohexylphenyl)-N-(4-isopropylbenzyl)guanidine.HCl] | – | – | IC50 [1]: 900 nM
CC(C)(C)c1ccc(CN(C(=N)N)c2ccc(C3CCCCC3)cc2)cc1 [Example 21, N-(4-Cyclohexylphenyl)-N-(4-tert-butylbenzyl)guanidine.HCl] | – | – | IC50 [1]: 1900 nM
CC(C)(C)c1ccc(CN(C(=N)N)c2ccc3c(c2)Cc2ccccc2-3)cc1 [Example 22, N-(2-Fluorenyl)-N-(4-tert-butylbenzyl)guanidine.HCl] | – | – | IC50 [1]: 500 nM
CC(C)(C)c1ccc(CN(C(=N)N)c2ccc3c(c2)CCC3)cc1 [Example 26, N-(5-Indanyl)-N-(4-tert-butylbenzyl)guanidine.HCl] | – | – | IC50 [1]: 700 nM
CCCCc1ccc(NC(=N)Nc2ccc(CCCC)cc2)cc1.CS(=O)(=O)O [Example 37, N,N′-Bis(4-n-butylphenyl)guanidine.mesylate] | 57 | 92 | % Inhibition of ^3H-Glu Rel @ 1 μM [2]: 100%; Audiogenic Response % Inhib. ([3]; 25 mg/kg intraperitoneally): 82%
CCC(C)c1ccc(N(Cc2ccc(C(C)(C)C)cc2)C(=N)NN2CCSCC2)cc1.Cl (stereo not drawn) [Example 73, N-(4-sec-Butylphenyl)-N-(4-t-butylbenzyl)-N′-(4-thiomorpholinyl)guanidine.HCl] | – | 89 | % Inhibition of ^3H-Glu Rel @ 1 μM [2]: 59%; Audiogenic Response % Inhib. ([3]; 20 mg/kg intraperitoneally): 23%
CC(C)(C)c1ccc(CN(C(=N)NN2CCOCC2)c2ccc(OCc3ccccc3)cc2)cc1.Cl [Example 79, N-(4-Benzyloxyphenyl)-N-(4-tert-butylbenzyl)-N′-(4-morpholinyl)guanidine.HCl] | 77 | 68 | Audiogenic Response % Inhib. ([3]; 20 mg/kg intraperitoneally): 41%
CC(C)(C)c1ccc(COc2cccc(NC(=N)Nc3ccc(C(C)(C)C)cc3)c2)cc1.CS(=O)(=O)O [Example 99, N-(3-(4-tert-Butylbenzyloxy)phenyl)-N′-(4-tert-butylphenyl)guanidine.mesylate] | 20 | – | –
CCCC(Cc1ccccc1)c1cccc(NC(=N)Nc2ccc(C(C)(C)C)cc2)c1.CS(=O)(=O)O (stereo not drawn) [Example 100, N-(3-(1′-Benzylbutyl)phenyl)-N′-(4-tert-butylphenyl)guanidine.mesylate] | 20 | – | –
CCCCc1ccc(NC(=N)N(C)c2ccc(CCCC)cc2)cc1.Cl [Example 101, N,N′-Bis-(4-butylphenyl)-N-methylguanidine.HCl] | 35 | – | –
CN(C(=N)N(C)c1ccc(C(C)(C)C)cc1)c1ccc(C(C)(C)C)cc1.Cl [Example 102, N,N′-Bis-(4-tert-butylphenyl)-N,N′-dimethylguanidine.HCl] | 73 | – | % Inhibition of ^3H-Glu Rel @ 0.1 μM [2]: 18%
CCCCc1ccc(NC(=N)Nc2ccc(OCc3ccccc3)cc2)cc1.Cl [Example 104, N-(4-Benzyloxyphenyl)-N′-(4-butylphenyl)guanidine.HCl] | 76 | 90 | Audiogenic Response % Inhib. ([3]; 20 mg/kg intraperitoneally): 40%
CCCCc1ccc(NC(=N)N(CCCC)c2ccc(CCCC)cc2)cc1.Cl [Example 105, N,N′-Bis-(4-butylphenyl)-N-butylguanidine.HCl] | 86 | – | % Inhibition of ^3H-Glu Rel @ 0.1 μM [2]: 24%
CC(C)(C)c1ccc(NC(=N)Nc2cccc(COCc3ccccc3)c2)cc1.CS(=O)(=O)O [Example 106, N-3-(Benzyloxymethyl)phenyl-N′-(4-tert-butylphenyl)guanidine.mesylate] | 48 | 93 | –

Compound | % Inhibition of ^3H-Glu Rel @ 0.3 μM [2] [%] | Audiogenic Response % Inhib. ([3]; 40 mg/kg intraperitoneally) [%] | also measured
CCCCOc1ccc(NC(=N)Nc2ccc(C(C)(C)C)cc2)cc1OCCCC.O=C(O)C(=O)O [Example 107, N-(3,4-Bis-butyloxyphenyl)-N′-(4-tert-butylphenyl)guanidine.oxalate] | 34 | – | –
CC(C)(C)c1ccc(NC(=N)Nc2cccc(OCc3ccccc3)c2)cc1.CS(=O)(=O)O [Example 108, N-(3-Benzyloxy)phenyl-N′-(4-tert-butylphenyl)guanidine.mesylate] | 49 | 80 | –
Br.CCCCOc1cc(NC(=N)Nc2ccc(OC)c(OCCCC)c2)ccc1OC [Example 109, N,N′-Bis-((3-butoxy-4-methoxy)phenyl)guanidine.HBr] | 86 | – | –
CCCCc1ccc(NC(=N)N(C)c2ccc(OCc3ccccc3)cc2)cc1.CS(=O)(=O)O [Example 110, N-(4-Benzyloxyphenyl)-N-methyl-N′-(4-butylphenyl)guanidine.mesylate] | 77 | 92.5 | Audiogenic Response % Inhib. ([3]; 20 mg/kg intraperitoneally): 42.3%
Br.N=C(Nc1ccc2c(c1)CCCC2)Nc1ccc2c(c1)CCCC2 [Example 111, N,N′-Bis-(6-tetralinyl)guanidine.HBr] | 61 | – | –
CN(C(=N)Nc1ccc(OCc2ccccc2)cc1)c1ccc(OCc2ccccc2)cc1.CS(=O)(=O)O [Example 132, N,N′-Bis(4-benzyloxyphenyl)-N′-methylguanidine.mesylate] | 22 | – | –
Br.CCCCOc1ccc(NC(=N)Nc2ccc(OCCCC)cc2)cc1 [Example 137, N,N′-Bis(4-butoxyphenyl)guanidine.HBr] | – | 82 | Audiogenic Response % Inhib. ([3]; 20 mg/kg intraperitoneally): 60%
Br.N=C(Nc1ccc(Oc2ccccc2)cc1)Nc1ccc(Oc2ccccc2)cc1 [Example 138, N,N′-Bis(4-phenoxyphenyl)guanidine.HBr] | 57 | – | –
CS(=O)(=O)O.N=C(Nc1ccc(N=Nc2ccccc2)cc1)Nc1cccc(OCc2ccccc2)c1 [Example 140, N-(3-Benzyloxyphenyl)-N′-(4-phenylazophenyl)guanidine.mesylate] | 44 | – | –
CN(C(=N)Nc1cccc(OCc2ccccc2)c1)c1cccc(OCc2ccccc2)c1.Cl [Example 141, N,N′-Bis(3-benzyloxyphenyl)-N′-methylguanidine.HCl] | 67 | – | –
CN(C(=N)Nc1cccc(OCc2ccccc2)c1)c1ccc(OCc2ccccc2)cc1 [N-(3-benzyloxyphenyl)-N′-(4-benzyloxyphenyl)-N′-methylguanidine] | 55 | – | –
N=C(Nc1ccc(OCc2ccccc2)cc1)Nc1ccc(SCc2ccccc2)cc1 [N-(4-benzyloxyphenyl)-N′-(4-benzylthiophenyl)guanidine] | 81 | – | –
N=C(Nc1ccc(OCc2ccccc2)cc1)Nc1ccc(Oc2ccccc2)cc1 [N-(4-benzyloxyphenyl)-N′-(4-phenoxyphenyl)guanidine] | – | 93 | Audiogenic Response % Inhib. ([3]; 20 mg/kg intraperitoneally): 16%
N-(4-sec-Butylphenyl)-N-(4-t-butylbenzyl)-N′-pyrrolidinylguanidine.HCl [Example 72] | 48 | 81 | Audiogenic Response % Inhib. ([3]; 20 mg/kg intraperitoneally): 52%
N-(4-sec-Butylphenyl)-N-(4-tert-butylbenzyl)-N′-piperidinylguanidine.HCl [Example 74] | 21 | – | % Inhibition of ^3H-Glu Rel @ 1 μM [2]: 100%
N-(5-Acenaphthyl)-N′-((4-tert-butylphenyl)-(4-sec-butylphenyl)-N′-methylguanidine.HCl [Example 60] | – | – | % Inhibition of ^3H-Glu Rel @ 3 μM [2]: 32%
N-(5-Acenaphthyl)-N′-(indolinyl)guanidine.mesylate [Example 29] | – | 81 | Audiogenic Response % Inhib. ([3]; 20 mg/kg intraperitoneally): 42%

— US6787569B1, “Therapeutic guanidines” (Cambridge NeuroScience, Inc., priority 1994, dated 2004)
